How the values were obtained:
[1] = test system: Rats; assay: Rat social interaction test (withdrawal from chronic treatment with a drug or substance of abuse); type: in vivo; conditions: rats withdrawn after diazepam 10mg/kg i.p. b.d. for 14 days; test compound 1µg/kg i.p. once daily immediately after withdrawal
Experimental: The method was based on that described by S. E. File, J. Neurosci. Methods, 1980, 2, 219-238. Rats were treated chronically with diazepam (10mg/kg i.p. b.d.) for 14 days and then withdrawn.

[2] = test system: Alcohol-preferring rats; assay: Alcohol consumption test in rats (computerised drinkometer); type: in vivo, Male Wistar rats; conditions: 6% v/v ethanol, 0.1µg/kg i.p. once daily for 7 days, 1h prior to the 12h dark cycle
Experimental: Male Wistar rats, initially weighing 200g, were housed individually in suspended stainless steel cages. The animal colony room was controlled for temperature (22-24°C) and humidity (55%) and was maintained on a 12-hour dark-light cycle which began at 1900 hours. Rats were allowed free access to food, water and ethanol solutions. Water and ethanol solutions were presented in two custom-designed drinkometer tubes mounted on the front of each rat cage. To avoid bias generated by a position preference, the tube positions were randomly reversed on each ethanol presentation. Water and ethanol consumption were continuously monitored daily during the drinking cycle (1900 to 0700h). Minute-to-minute ethanol and water volume consumptions were recorded using a computerised drinkometer system. This system consists of pressure transducers embedded in the base of the drinking tube and accurately detects significant volume changes as small as 0.1ml. Ethanol drinking solutions were prepared by diluting 95% ethyl alcohol with distilled water to form 6% v/v concentrations. From the minute-to-minute volume recordings, the following variables were calculated : total ethanol volume; total ethanol preference; weight-adjusted ethanol volume and total minutes of ethanol drinking activity. […]

For `Cc1[nH]cnc1CN1CCc2c(c3ccccc3n2C)C1=O.Cl` [test compound, 2,3,4,5-tetrahydro-5-methyl-2-[(5-methyl-1H-imidazol-4-yl)methyl]-1H-pyrido[4,3-b]indol-1-one hydrochloride], the “withdrawal response (reduced social interaction)” value [1] was “the withdrawal response was not observed”, the ethanol drinking time [2] was “reduced” and the ethanol intake [2] was “reduced”.

Source: EP0357416A2, “Use of serotonin antagonists in the treatment of drug addiction” (GLAXO GROUP LIMITED, priority 1988, dated 1990)
